Test results: patent US6146868A, “Glucuronoxylomannan (GXM)-O-acetylhydrolase of cryptococcus neoformans and uses thereof” (Research Development Foundation, priority 1999, dated 2000)

Assays:
[1] = test system: native (wild-type) glucuronoxylomannan (GXM)-O-acetylhydrolase purified from mixed unknown bacterial culture; assay: PNP-acetate plate assay, kinetics (Km), native enzyme; type: biochemical, mixed unknown bacterial culture from sewage; conditions: pH 7.2, A405 kinetic reading, hyperbolic regression, read-out: Km for PNP-acetate (KPNPA)
Source text: Purification, LysC Degradation and Amino Acid Sequencing of Wild-Type Enzyme: The native GXM O-acetylhydrolase was purified from a mixed unknown bacterial culture that was collected from sewage. The purification was achieved by the following steps: cholate extraction, ammonium sulfate precipitation, molecular sieve chromatography, and ion exchange on a mono Q column followed by a mono S column.
PNP-Carboxyl Ester Assay: This assay determines specificity of enzymatic activity for five different PNP-fatty acid esters: PNP-acetate (2 carbon), PNP-propionate (3 carbon), PNP-butyrate (4 carbon), PNP-laurate (12 carbon), and PNP-palmitate (16 carbon). The assay was set up in a 96-well plate and read at 405 n m on a BIO-TEK Ceres 900 plate reader. Each reaction consisted of: 200 μl PBS buffer, pH 7.2; 50 μl PNP-ester solution, 0.77 mM; and 50 μl of enzyme (containing various levels of enzyme) added just prior to reading at 405 nm. Non-enzymic hydrolysis was measured in a solution that consisted of 200 μl PBS buffer, pH 7.2; 50 μl PNP-ester solution, 0.77 mM; and 50 μl PBS, pH 7.2, the buffer replacing the enzyme. Standard curves were obtained by measurement of the A405 of solutions of known amounts of para-nitrophenol. This assay was read within 30 seconds in a single point manner as the enzyme works rapidly on this substrate. […]

[2] = test system: recombinant glucuronoxylomannan (GXM)-O-acetylhydrolase, SEQ ID No. 31 (His-tagged short clone expressed in E. coli); assay: PNP-acetate plate assay, kinetics (Km), recombinant enzyme; type: biochemical, mixed unknown bacterial culture from sewage; conditions: pH 7.2, A405 kinetic reading, hyperbolic regression, read-out: Km for PNP-acetate (KPNPA)
Experimental: PNP-Carboxyl Ester Assay: This assay determines specificity of enzymatic activity for five different PNP-fatty acid esters: PNP-acetate (2 carbon), PNP-propionate (3 carbon), PNP-butyrate (4 carbon), PNP-laurate (12 carbon), and PNP-palmitate (16 carbon). The assay was set up in a 96-well plate and read at 405 n m on a BIO-TEK Ceres 900 plate reader. Each reaction consisted of: 200 μl PBS buffer, pH 7.2; 50 μl PNP-ester solution, 0.77 mM; and 50 μl of enzyme (containing various levels of enzyme) added just prior to reading at 405 nm. Non-enzymic hydrolysis was measured in a solution that consisted of 200 μl PBS buffer, pH 7.2; 50 μl PNP-ester solution, 0.77 mM; and 50 μl PBS, pH 7.2, the buffer replacing the enzyme. […] This assay was read within 30 seconds in a single point manner as the enzyme works rapidly on this substrate.
PNP-Acetate Assay: This assay was routinely used to determine enzymatic activity in samples of recombinant enzyme at the various steps in its expression and purification as described above, but with the PNP-acetate substrate only. This reaction was measured at pH=6.2 to 8.2. […]
Kinetics: Kinetics of the enzyme were investigated through use of the PNP-acetate plate assay and the competition assay described above. The plates were read on the BIO-TEK Ceres 900 plate reader at 405 nm with a kinetic protocol that took readings every 20 seconds for 3 minutes. […]

With `CC(=O)Oc1ccc([N+](=O)[O-])cc1` [PNP-acetate] the Km [1] was 1260 µM and the Km [2] was 1340 µM.
